Where a name gives a salt, the structure may show the parent alone. Active and inactive are the calls of the source. Cut-off read from the data, not from the text of the source, for most assays here: actives have a measured Kd and inactives only a lower limit.
Experiments:
[1] = biological target: T1, Peroxisomal acyl-coenzyme A oxidase 1 (Homo sapiens, UniProt Q15067)
T1 sequence (Q15067 whole entry): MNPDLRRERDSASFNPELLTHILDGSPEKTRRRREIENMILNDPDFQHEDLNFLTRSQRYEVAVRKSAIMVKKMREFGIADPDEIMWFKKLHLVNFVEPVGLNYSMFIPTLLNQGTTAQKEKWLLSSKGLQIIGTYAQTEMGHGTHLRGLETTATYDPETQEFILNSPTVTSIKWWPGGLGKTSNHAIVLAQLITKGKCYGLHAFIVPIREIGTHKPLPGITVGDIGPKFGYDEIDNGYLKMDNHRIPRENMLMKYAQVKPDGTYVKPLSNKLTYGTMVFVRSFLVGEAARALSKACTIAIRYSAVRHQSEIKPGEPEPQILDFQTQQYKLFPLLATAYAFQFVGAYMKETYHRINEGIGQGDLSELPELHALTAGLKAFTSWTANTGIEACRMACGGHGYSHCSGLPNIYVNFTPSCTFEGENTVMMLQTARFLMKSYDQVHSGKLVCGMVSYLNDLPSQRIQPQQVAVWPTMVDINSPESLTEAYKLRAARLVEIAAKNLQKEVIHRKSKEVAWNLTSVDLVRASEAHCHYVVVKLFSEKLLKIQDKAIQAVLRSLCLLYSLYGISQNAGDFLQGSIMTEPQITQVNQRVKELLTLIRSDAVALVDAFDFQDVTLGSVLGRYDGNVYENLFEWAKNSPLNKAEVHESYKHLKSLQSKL

[2] = biological target: T2, Calcium/calmodulin-dependent protein kinase type IV (Homo sapiens, UniProt Q16566)
T2 sequence (Q16566 whole entry): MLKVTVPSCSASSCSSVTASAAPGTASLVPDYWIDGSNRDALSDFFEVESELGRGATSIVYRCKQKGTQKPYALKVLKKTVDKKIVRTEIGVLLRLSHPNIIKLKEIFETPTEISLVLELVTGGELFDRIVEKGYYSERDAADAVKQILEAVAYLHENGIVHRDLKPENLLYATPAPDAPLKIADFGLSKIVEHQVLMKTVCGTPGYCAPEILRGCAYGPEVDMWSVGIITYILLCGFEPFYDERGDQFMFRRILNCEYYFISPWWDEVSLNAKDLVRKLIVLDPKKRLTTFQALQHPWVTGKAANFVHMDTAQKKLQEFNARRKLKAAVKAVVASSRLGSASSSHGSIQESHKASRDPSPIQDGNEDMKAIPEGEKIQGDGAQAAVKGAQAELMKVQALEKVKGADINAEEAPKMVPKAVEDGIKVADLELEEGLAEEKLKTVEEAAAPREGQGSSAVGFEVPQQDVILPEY

[3] = biological target: Cyclin-dependent kinase 7 (Homo sapiens, UniProt P50613)
Chain of Cyclin-dependent kinase 7 (P50613 whole entry): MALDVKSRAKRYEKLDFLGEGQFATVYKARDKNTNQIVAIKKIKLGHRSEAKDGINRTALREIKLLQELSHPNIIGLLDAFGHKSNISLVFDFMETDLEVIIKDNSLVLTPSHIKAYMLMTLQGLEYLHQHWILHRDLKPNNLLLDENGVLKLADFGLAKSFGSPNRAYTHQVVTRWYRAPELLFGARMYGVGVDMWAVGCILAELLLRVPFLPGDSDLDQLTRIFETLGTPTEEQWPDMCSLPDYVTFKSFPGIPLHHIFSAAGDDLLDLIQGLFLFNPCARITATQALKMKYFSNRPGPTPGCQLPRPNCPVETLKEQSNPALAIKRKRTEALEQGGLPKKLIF

[4] = biological target: Dual specificity protein kinase CLK2 (Homo sapiens, UniProt P49760)
Chain of Dual specificity protein kinase CLK2 (P49760 whole entry): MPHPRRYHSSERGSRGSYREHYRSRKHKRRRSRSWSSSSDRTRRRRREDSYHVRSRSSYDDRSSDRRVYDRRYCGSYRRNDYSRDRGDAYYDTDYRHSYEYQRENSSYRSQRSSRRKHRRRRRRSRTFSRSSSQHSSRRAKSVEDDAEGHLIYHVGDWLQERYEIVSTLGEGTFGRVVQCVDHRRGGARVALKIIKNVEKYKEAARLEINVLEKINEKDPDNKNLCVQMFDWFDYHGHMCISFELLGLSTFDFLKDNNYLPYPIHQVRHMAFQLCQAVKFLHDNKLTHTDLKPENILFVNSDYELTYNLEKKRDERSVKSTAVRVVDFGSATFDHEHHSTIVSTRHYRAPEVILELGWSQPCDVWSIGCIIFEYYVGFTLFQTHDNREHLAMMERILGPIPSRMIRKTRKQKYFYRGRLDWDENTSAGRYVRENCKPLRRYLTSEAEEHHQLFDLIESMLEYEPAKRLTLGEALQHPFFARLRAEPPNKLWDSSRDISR

[5] = biological target: Insulin receptor (Homo sapiens, UniProt P06213)
Chain of Insulin receptor (P06213 28-758 limits assumed): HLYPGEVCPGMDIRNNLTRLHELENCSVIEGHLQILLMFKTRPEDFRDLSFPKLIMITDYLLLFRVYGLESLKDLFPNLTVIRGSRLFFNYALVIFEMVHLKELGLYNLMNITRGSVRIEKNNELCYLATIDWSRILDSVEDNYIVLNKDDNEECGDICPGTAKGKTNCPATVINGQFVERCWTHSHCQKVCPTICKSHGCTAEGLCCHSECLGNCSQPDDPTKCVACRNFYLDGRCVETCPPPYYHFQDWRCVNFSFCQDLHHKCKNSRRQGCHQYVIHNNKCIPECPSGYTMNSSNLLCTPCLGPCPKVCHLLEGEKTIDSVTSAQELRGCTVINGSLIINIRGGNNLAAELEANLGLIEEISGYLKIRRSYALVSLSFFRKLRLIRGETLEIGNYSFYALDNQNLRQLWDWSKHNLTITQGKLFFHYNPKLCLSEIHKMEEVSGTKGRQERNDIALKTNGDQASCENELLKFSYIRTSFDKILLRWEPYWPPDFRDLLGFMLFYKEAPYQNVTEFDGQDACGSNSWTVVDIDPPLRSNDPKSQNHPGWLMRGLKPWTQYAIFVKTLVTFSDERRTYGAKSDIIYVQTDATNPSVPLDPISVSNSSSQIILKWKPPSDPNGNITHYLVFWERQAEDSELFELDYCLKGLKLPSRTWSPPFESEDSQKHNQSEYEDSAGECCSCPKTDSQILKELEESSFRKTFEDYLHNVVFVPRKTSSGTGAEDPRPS
Chain of Insulin receptor (P06213 763-1382 limits assumed): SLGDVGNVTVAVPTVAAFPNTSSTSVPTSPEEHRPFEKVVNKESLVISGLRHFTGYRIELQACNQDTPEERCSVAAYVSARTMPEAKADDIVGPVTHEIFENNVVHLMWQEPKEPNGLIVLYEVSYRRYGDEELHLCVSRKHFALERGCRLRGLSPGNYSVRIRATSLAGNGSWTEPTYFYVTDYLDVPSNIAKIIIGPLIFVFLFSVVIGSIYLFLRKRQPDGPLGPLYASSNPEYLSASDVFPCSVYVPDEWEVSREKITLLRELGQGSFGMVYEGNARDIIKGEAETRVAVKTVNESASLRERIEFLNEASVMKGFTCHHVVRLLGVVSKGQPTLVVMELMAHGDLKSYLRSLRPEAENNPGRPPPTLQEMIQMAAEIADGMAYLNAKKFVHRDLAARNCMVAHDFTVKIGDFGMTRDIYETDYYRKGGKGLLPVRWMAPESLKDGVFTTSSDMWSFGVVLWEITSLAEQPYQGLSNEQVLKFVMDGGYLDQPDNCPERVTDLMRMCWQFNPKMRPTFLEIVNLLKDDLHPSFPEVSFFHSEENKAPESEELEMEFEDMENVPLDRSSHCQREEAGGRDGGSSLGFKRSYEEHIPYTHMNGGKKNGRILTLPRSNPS

[6] = biological target: Tyrosine-protein kinase Lck (Homo sapiens, UniProt P06239)
Chain of Tyrosine-protein kinase Lck (P06239 whole entry): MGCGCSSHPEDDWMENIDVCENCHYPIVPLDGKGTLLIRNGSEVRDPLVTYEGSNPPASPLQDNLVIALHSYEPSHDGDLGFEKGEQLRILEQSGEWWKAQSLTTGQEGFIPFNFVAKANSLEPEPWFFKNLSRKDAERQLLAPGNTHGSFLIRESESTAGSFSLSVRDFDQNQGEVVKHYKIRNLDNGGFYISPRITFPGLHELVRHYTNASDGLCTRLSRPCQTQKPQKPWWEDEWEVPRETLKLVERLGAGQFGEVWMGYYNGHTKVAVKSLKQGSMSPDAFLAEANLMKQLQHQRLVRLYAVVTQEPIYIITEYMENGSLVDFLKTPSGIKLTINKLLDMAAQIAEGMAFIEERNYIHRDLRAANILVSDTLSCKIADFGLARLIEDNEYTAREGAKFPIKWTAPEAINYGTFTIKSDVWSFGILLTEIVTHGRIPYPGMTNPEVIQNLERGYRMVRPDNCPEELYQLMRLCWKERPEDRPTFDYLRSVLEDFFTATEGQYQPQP

[7] = biological target: T3, NUAK family SNF1-like kinase 2 (Homo sapiens, UniProt Q9H093)
T3 sequence (Q9H093 whole entry): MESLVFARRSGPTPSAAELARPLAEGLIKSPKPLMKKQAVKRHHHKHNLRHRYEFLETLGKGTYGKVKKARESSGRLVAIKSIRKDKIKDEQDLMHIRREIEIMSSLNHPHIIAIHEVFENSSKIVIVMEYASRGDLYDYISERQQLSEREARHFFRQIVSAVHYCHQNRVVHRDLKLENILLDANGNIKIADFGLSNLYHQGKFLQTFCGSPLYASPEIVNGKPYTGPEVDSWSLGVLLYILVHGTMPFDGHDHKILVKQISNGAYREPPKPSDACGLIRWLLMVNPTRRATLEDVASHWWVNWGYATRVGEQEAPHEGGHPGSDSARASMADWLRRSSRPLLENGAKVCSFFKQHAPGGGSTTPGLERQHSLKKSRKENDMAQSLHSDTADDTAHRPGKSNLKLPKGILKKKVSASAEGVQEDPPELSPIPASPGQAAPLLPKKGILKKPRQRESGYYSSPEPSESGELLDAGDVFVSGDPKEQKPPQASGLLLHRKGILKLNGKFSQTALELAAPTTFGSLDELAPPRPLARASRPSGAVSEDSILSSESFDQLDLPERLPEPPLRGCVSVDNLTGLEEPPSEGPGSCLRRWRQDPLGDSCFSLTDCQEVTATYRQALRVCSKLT

[8] = biological target: T4, Ras-related protein Rab-27A (Homo sapiens, UniProt P51159)
T4 sequence (P51159 whole entry): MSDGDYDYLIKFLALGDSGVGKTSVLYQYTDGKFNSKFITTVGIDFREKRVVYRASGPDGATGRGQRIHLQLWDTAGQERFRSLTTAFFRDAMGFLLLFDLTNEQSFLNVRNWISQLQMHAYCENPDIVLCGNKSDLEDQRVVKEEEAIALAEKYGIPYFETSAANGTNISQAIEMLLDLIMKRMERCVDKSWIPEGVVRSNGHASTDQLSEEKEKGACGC

[9] = biological target: Ribosomal protein S6 kinase alpha-3 (Homo sapiens, UniProt P51812)
Chain of Ribosomal protein S6 kinase alpha-3 (P51812 whole entry): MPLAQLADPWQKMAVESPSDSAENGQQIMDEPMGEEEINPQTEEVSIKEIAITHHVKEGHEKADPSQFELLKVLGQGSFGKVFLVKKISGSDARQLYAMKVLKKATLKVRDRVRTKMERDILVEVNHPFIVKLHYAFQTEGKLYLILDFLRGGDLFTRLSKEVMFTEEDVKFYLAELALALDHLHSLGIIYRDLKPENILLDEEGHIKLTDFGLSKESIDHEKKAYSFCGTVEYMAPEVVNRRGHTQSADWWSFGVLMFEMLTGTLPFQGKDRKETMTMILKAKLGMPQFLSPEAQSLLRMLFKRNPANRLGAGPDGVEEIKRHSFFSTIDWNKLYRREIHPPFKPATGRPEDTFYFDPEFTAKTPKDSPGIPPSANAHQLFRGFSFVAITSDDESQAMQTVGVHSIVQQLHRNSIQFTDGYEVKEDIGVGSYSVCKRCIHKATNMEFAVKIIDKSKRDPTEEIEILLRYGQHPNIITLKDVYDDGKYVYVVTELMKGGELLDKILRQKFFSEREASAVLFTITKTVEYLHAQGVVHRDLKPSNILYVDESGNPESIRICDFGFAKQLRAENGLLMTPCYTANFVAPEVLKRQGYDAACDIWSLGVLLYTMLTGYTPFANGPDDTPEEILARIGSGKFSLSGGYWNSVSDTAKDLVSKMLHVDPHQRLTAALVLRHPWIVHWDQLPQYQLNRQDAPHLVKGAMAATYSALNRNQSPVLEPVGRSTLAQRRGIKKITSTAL

[10] = biological target: T5, Uncharacterized protein FLJ45252 (Homo sapiens, UniProt Q6ZSR9); details: read-out: Kd apparent; k-562, colo 205, sk-n-be(2) and mv-4-11
T5 sequence (Q6ZSR9 whole entry): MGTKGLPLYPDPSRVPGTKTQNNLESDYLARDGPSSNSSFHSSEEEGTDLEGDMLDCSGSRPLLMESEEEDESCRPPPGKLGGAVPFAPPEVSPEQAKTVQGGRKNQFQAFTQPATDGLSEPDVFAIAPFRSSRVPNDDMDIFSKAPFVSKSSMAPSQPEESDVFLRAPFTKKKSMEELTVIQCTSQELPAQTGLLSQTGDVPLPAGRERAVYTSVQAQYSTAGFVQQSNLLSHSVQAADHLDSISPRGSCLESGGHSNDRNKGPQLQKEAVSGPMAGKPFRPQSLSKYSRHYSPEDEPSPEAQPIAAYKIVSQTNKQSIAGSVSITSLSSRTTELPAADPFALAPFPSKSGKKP
Note: in the data inactive means no Kd found up to 30 µM.

Row | Compound | Kd [1] | Kd [2] | Kd [3] | Kd [4] | Kd [5] | Kd [6] | Kd [7] | Kd [8] | Kd [9] | Kd [10]
1 | Cc1nc2cc(-c3nn(C(C)C)c4ncnc(N)c34)ccc2o1 | > 30 µM (inactive) | 5.96 µM (active) | > 30 µM (inactive) | > 30 µM (inactive) | > 30 µM (inactive) | > 30 µM (inactive) | > 30 µM (inactive) | > 30 µM (inactive) | > 30 µM (inactive) | > 30 µM (inactive)
2 | Cc1csc(-c2nnc(Nc3ccc(Oc4ncccc4-c4ccnc(N)n4)cc3)c3ccccc23)c1 [AMG-900] | > 30 µM (inactive) | 1.82 µM (active) | > 30 µM (inactive) | 3.22 µM (active) | > 30 µM (inactive) | > 30 µM (inactive) | > 30 µM (inactive) | > 30 µM (inactive) | > 30 µM (inactive) | 3.56 µM (active)
3 | Cn1cnc2c(F)c(Nc3ccc(Br)cc3F)c(C(=O)NOCCO)cc21 [BINIMETINIB] | > 30 µM (inactive) | > 30 µM (inactive) | > 30 µM (inactive) | > 30 µM (inactive) | > 30 µM (inactive) | > 30 µM (inactive) | > 30 µM (inactive) | > 30 µM (inactive) | > 30 µM (inactive) | > 30 µM (inactive)
4 | CCn1c(C(=O)N(C2CC2)C2CC2)cc2c3c(ncn3C)c(Nc3cc(C)n(C)n3)nc21 [BMS-911543] | > 30 µM (inactive) | > 30 µM (inactive) | > 30 µM (inactive) | > 30 µM (inactive) | > 30 µM (inactive) | > 30 µM (inactive) | > 30 µM (inactive) | > 30 µM (inactive) | > 30 µM (inactive) | > 30 µM (inactive)
5 | C#Cc1cccc(Nc2ncnc3cc(OC)c(OCCCCCCC(=O)NO)cc23)c1 [CUDC-101] | > 30 µM (inactive) | > 30 µM (inactive) | > 30 µM (inactive) | > 30 µM (inactive) | > 30 µM (inactive) | > 30 µM (inactive) | > 30 µM (inactive) | > 30 µM (inactive) | > 30 µM (inactive) | > 30 µM (inactive)
6 | CCS(=O)(=O)N1CCN(c2ccc(Nc3ncc(C(N)=O)c(NC4CC4)n3)cc2)CC1 [Cerdulatinib Hydrochloride] | > 30 µM (inactive) | > 30 µM (inactive) | > 30 µM (inactive) | > 30 µM (inactive) | > 30 µM (inactive) | > 30 µM (inactive) | > 30 µM (inactive) | > 30 µM (inactive) | 5.89 µM (active) | 0.0007 µM (active)
7 | Cc1cccc(-c2nn3c(c2-c2ccnc4ccc(C(N)=O)cc24)CCC3)n1 [GALUNISERTIB] | > 30 µM (inactive) | > 30 µM (inactive) | > 30 µM (inactive) | > 30 µM (inactive) | > 30 µM (inactive) | > 30 µM (inactive) | > 30 µM (inactive) | > 30 µM (inactive) | > 30 µM (inactive) | > 30 µM (inactive)
8 | O=C(Nc1cc(C(F)(F)F)cc(C(F)(F)F)c1)c1cc(Cl)ccc1O [IMD-0354] | > 30 µM (inactive) | > 30 µM (inactive) | > 30 µM (inactive) | > 30 µM (inactive) | > 30 µM (inactive) | > 30 µM (inactive) | > 30 µM (inactive) | > 30 µM (inactive) | > 30 µM (inactive) | > 30 µM (inactive)
9 | CNC(=O)c1cccc2cc(Oc3ccnc4cc(OCC5(N)CC5)c(OC)cc34)ccc12 [LUCITANIB] | > 30 µM (inactive) | > 30 µM (inactive) | > 30 µM (inactive) | > 30 µM (inactive) | > 30 µM (inactive) | > 30 µM (inactive) | > 30 µM (inactive) | > 30 µM (inactive) | > 30 µM (inactive) | > 30 µM (inactive)
10 | Cn1cc(-c2cnc3ccc4ccc(CS(=O)(=O)NCc5ccccn5)cc4c(=O)c3c2)cn1 [MK-8033] | > 30 µM (inactive) | > 30 µM (inactive) | > 30 µM (inactive) | > 30 µM (inactive) | > 30 µM (inactive) | > 30 µM (inactive) | > 30 µM (inactive) | > 30 µM (inactive) | > 30 µM (inactive) | > 30 µM (inactive)
11 | FC(F)(F)c1ccc(/C=C/c2nc(COc3ccc(CCCCn4ccnn4)cc3)co2)cc1 [MUBRITINIB] | > 30 µM (inactive) | > 30 µM (inactive) | > 30 µM (inactive) | > 30 µM (inactive) | > 30 µM (inactive) | > 30 µM (inactive) | > 30 µM (inactive) | > 30 µM (inactive) | > 30 µM (inactive) | > 30 µM (inactive)
12 | Cc1cnc(NC(=O)Nc2cc(Br)c(C)cc2OC[C@@H]2CNCCO2)cn1 [RABUSERTIB] | > 30 µM (inactive) | > 30 µM (inactive) | > 30 µM (inactive) | > 30 µM (inactive) | > 30 µM (inactive) | > 30 µM (inactive) | > 30 µM (inactive) | > 30 µM (inactive) | > 30 µM (inactive) | > 30 µM (inactive)
13 | N#CC1(c2ccc(NC(=O)c3cccnc3NCc3ccncc3)cc2)CCCC1 [RIVOCERANIB] | > 30 µM (inactive) | > 30 µM (inactive) | > 30 µM (inactive) | > 30 µM (inactive) | > 30 µM (inactive) | > 30 µM (inactive) | > 30 µM (inactive) | > 30 µM (inactive) | > 30 µM (inactive) | > 30 µM (inactive)
14 | O=c1[nH]ccc2cc(OC3CCNCC3)ccc12 [SAR-407899 FREE BASE] | > 30 µM (inactive) | > 30 µM (inactive) | > 30 µM (inactive) | > 30 µM (inactive) | > 30 µM (inactive) | > 30 µM (inactive) | > 30 µM (inactive) | > 30 µM (inactive) | > 30 µM (inactive) | 0.013 µM (active)
15 | Cn1cc(-c2cnn3c(N)c(Br)c([C@@H]4CCCNC4)nc23)cn1 [SCH-900776] | > 30 µM (inactive) | > 30 µM (inactive) | > 30 µM (inactive) | > 30 µM (inactive) | > 30 µM (inactive) | > 30 µM (inactive) | > 30 µM (inactive) | > 30 µM (inactive) | > 30 µM (inactive) | > 30 µM (inactive)

— ChEMBL document CHEMBL3991601, “The target landscape of clinical kinase drugs” (Science, 2017)
